Laboratory results as given in patent publication US20240390338A1, “METHODS FOR TREATING NEUROGENERATIVE DISEASES” (PTC THERAPEUTICS, INC., priority 2021, published 2024).

System: MAPT 3R mRNA
Assay: RT-qPCR Assay to Quantify MAPT 3R mRNA in Cells
Type: cell-based
Conditions: cells incubated with compound 24 h; 7-point concentration curve; MAPT minigene 3R RT-qPCR with GAPDH assay; EC2X interpolated from dose response curve
Protocol: RT-qPCR Assay to Quantify MAPT 3R mRNA in Cells
Test compounds were serially diluted 3.16-fold in 100% DMSO to generate a 7-point concentration curve. Aliquots of 0.5 μL of diluted compounds were transferred to a 96-well flat bottom plate by a liquid handler. An aliquot of 0.5 μL DMSO was also transferred to separate wells and used as controls. Duplicate samples were set up for each compound concentration and for the DMSO control.
Cells were thawed and incubated in cell culture media (DMEM, 10% FBS, and 1% antibiotic cocktail) for 72 h. Cells were trypsinized, counted, and re-suspended to a concentration of 200,000 cells/mL in cell culture media. A 100 μL aliquot of the cell suspensions were plated at 20,000 cells per well in the compound containing 96 well microtiter plate and incubated for in a cell culture incubator (37° C., 5% CO2, 100% relative humidity).
After 24 h, media was aspirated from the cells and 20 μL of the RCL2 lysis buffer (10 mM Tris-HCL pH 7.4, 150 mM NaCl, 0.33% IGEPAL® CA-630) was added to each well and incubated at RT for 1 min. Chilled nuclease free water (140 μL per well) was added and the plates were immediately transferred on ice. After 1 min on ice, plates were frozen at −80° C. overnight.
Preparation of RT-qPCR Reaction Mixture:
An aliquot of 4 μL/well of the cell lysates was transferred using the liquid handler to the Armadillo 384-Well PCR plate containing 6 μL/well of the RT-qPCR reaction mixture that was prepared as detailed above. The plates were then sealed with MicroAmp™ Optical Adhesive Film followed by spinning down for 1 min and placed in the CFX384 thermocycler (BioRad).
The RT-qPCR was carried out at the following temperatures for the indicated time: • Step 1: 48° C. (30 min) • Step 2: 95° C. (10 min) • Step 3: 95° C. (15 sec) • Step 4: 60° C. (1 min); then, repeated Steps 3 and 4 for a total of 40 cycles.
The percent exon 4 skipping was calculated for each dose of compound treatment using Equations 1 and 2.
Data were fit to a dose response curve and the EC2X was interpolated using XLfit® statistical and curve fitting package.
An EC2X value between >1000 nM and ≤1500 nM is indicated by two stars (**). An EC2X value between >500 nM and ≤1000 nM is indicated by three stars (***). An EC2X value between >50 nM and ≤500 nM is indicated by four stars (****). An EC2X value ≤50 nM is indicated by five stars (*****).

SMILES	EC (2-fold increase) [µM]
C[C@@H](O)[C@H](N)Cc1sc2c(NCc3ccco3)cc(Cl)nc2c1Br [Cpd 165, (2R,3R)-3-amino-4-(3-bromo-5-chloro-7-{[(furan-2-yl)methyl]amino}thieno[3,2-b]pyridin-2-yl)butan-2-ol]	≤ 0.05
COC[C@H](N)Cc1sc2c(NCc3ccco3)cc(Cl)nc2c1Cl [Cpd 40, 2-[(2R)-2-amino-3-methoxypropyl]-3,5-dichloro-N-[(furan-2-yl)methyl]thieno[3,2-b]pyridin-7-amine]	≤ 0.05
C[C@H](N)Cc1sc2c(NCc3ccco3)cc(Cl)nc2c1Cl [Cpd 36, 2-[(2S)-2-aminopropyl]-3,5-dichloro-N-[(furan-2-yl)methyl]thieno[3,2-b]pyridin-7-amine]	≤ 0.05
N[C@H](Cc1sc2c(NCc3ccco3)cc(Cl)nc2c1Cl)C(=O)Nc1ccccc1F [Cpd 120, 3-(3,5-dichloro-7-{[(furan-2-yl)methyl]amino}thieno[3,2-b]pyridin-2-yl)-N-(2-fluorophenyl)-D-alaninamide]	0.05 to 0.5
N[C@@H](CF)Cc1sc2c(NCc3ccco3)cc(Cl)nc2c1Cl [Cpd 94, 2-[(2R)-2-amino-3-fluoropropyl]-3,5-dichloro-N-[(furan-2-yl)methyl]thieno[3,2-b]pyridin-7-amine]	≤ 0.05
CN[C@@H](C)Cc1sc2c(NCc3ccco3)cc(Cl)nc2c1C [Cpd 42, 5-chloro-N-[(furan-2-yl)methyl]-3-methyl-2-[(2S)-2-(methylamino)propyl]thieno[3,2-b]pyridin-7-amine]	0.5 to 1
N[C@@H](CO)Cc1sc2c(NCc3ccco3)cc(Cl)nc2c1Cl [Cpd 39, (2R)-2-amino-3-(3,5-dichloro-7-{[(furan-2-yl)methyl]amino}thieno[3,2-b]pyridin-2-yl)propan-1-ol]	0.05 to 0.5
C[C@H](N)C(F)c1sc2c(NCc3ccco3)cc(Cl)nc2c1Br (stereo partly drawn) [Cpd 154, 2-[(2S)-2-amino-1-fluoropropyl]-3-bromo-5-chloro-N-[(furan-2-yl)methyl]thieno[3,2-b]pyridin-7-amine]	≤ 0.05
Cc1c(C[C@@H](N)CCF)sc2c(NCc3ccco3)cc(Cl)nc12 [Cpd 95, 2-[(2S)-2-amino-4-fluorobutyl]-5-chloro-N-[(furan-2-yl)methyl]-3-methylthieno[3,2-b]pyridin-7-amine]	≤ 0.05
C[C@H](F)[C@H](N)Cc1sc2c(NCc3nccs3)cc(Cl)nc2c1Br [Cpd 125, 2-[(2R,3S)-2-amino-3-fluorobutyl]-3-bromo-5-chloro-N-[(1,3-thiazol-2-yl)methyl]thieno[3,2-b]pyridin-7-amine]	≤ 0.05
C[C@H](N)C(F)c1sc2c(NCc3cccs3)cc(Cl)nc2c1Br (stereo partly drawn) [Cpd 158, 2-[(2S)-2-amino-1-fluoropropyl]-3-bromo-5-chloro-N-[(thiophen-2-yl)methyl]thieno[3,2-b]pyridin-7-amine]	≤ 0.05
N#CC[C@H](N)Cc1sc2c(NCc3ccco3)cc(Cl)nc2c1Br [Cpd 103, (3S)-3-amino-4-(3-bromo-5-chloro-7-{[(furan-2-yl)methyl]amino}thieno[3,2-b]pyridin-2-yl)butanenitrile]	0.05 to 0.5
CS(=O)(=O)C[C@H](N)Cc1sc2c(NCc3ccco3)cc(Cl)nc2c1Cl [Cpd 113, 2-[(2R)-2-amino-3-(methanesulfonyl)propyl]-3,5-dichloro-N-[(furan-2-yl)methyl]thieno[3,2-b]pyridin-7-amine]	0.05 to 0.5
CS(=O)(=O)C[C@H](N)Cc1sc2c(NCc3ccco3)cc(Cl)nc2c1Br [Cpd 117, 2-[(2R)-2-amino-3-(methanesulfonyl)propyl]-3-bromo-5-chloro-N-[(furan-2-yl)methyl]thieno[3,2-b]pyridin-7-amine]	0.05 to 0.5
Cc1c(C[C@@H](N)[C@H](C)F)sc2c(NCc3cccs3)cc(Cl)nc12 [Cpd 126, 2-[(2R,3S)-2-amino-3-fluorobutyl]-5-chloro-3-methyl-N-[(thiophen-2-yl)methyl]thieno[3,2-b]pyridin-7-amine]	≤ 0.05
C[C@H](N)Cc1sc2c(NCc3cccs3)cc(Cl)nc2c1Br [Cpd 53, 2-[(2S)-2-aminopropyl]-3-bromo-5-chloro-N-[(thiophen-2-yl)methyl]thieno[3,2-b]pyridin-7-amine]	≤ 0.05
C[C@H](N)Cc1sc2c(NCc3ccco3)cc(Cl)nc2c1C1CC1 [Cpd 51, 2-[(2S)-2-aminopropyl]-5-chloro-3-cyclopropyl-N-[(furan-2-yl)methyl]thieno[3,2-b]pyridin-7-amine]	≤ 0.05
Cc1c(C[C@@H](N)CC#N)sc2c(NCc3cccs3)cc(Cl)nc12 [Cpd 105, (3S)-3-amino-4-(5-chloro-3-methyl-7-{[(thiophen-2-yl)methyl]amino}thieno[3,2-b]pyridin-2-yl)butanenitrile]	0.05 to 0.5
Cc1c(C[C@@H](N)[C@H](C)F)sc2c(NCc3nccs3)cc(Cl)nc12 [Cpd 128, 2-[(2R,3S)-2-amino-3-fluorobutyl]-5-chloro-3-methyl-N-[(1,3-thiazol-2-yl)methyl]thieno[3,2-b]pyridin-7-amine]	≤ 0.05
Cc1c(C[C@@H](N)CCF)sc2c(NCc3cccs3)cc(Cl)nc12 [Cpd 92, 2-[(2S)-2-amino-4-fluorobutyl]-5-chloro-3-methyl-N-[(thiophen-2-yl)methyl]thieno[3,2-b]pyridin-7-amine]	0.05 to 0.5
Cc1c(C[C@@H](N)C(=O)Nc2cnccn2)sc2c(NCc3ccco3)cc(Cl)nc12 [Cpd 135, 3-(5-chloro-7-{[(furan-2-yl)methyl]amino}-3-methylthieno[3,2-b]pyridin-2-yl)-N-pyrazin-2-yl-D-alaninamide]	0.05 to 0.5
Cc1c(C[C@@H](N)C(=O)N(C)C)sc2c(NCc3ccco3)cc(Cl)nc12 [Cpd 116, 3-(5-chloro-7-{[(furan-2-yl)methyl]amino}-3-methylthieno[3,2-b]pyridin-2-yl)-N,N-dimethyl-D-alaninamide]	0.05 to 0.5
CC[C@H](N)Cc1sc2c(NCc3cccs3)cc(Cl)nc2c1Cl [Cpd 83, 2-[(2S)-2-aminobutyl]-3,5-dichloro-N-[(thiophen-2-yl)methyl]thieno[3,2-b]pyridin-7-amine]	≤ 0.05
N[C@@H](CCF)Cc1sc2c(NCc3ccco3)cc(Cl)nc2c1Br [Cpd 97, 2-[(2S)-2-amino-4-fluorobutyl]-3-bromo-5-chloro-N-[(furan-2-yl)methyl]thieno[3,2-b]pyridin-7-amine]	≤ 0.05
N[C@@H](CCF)Cc1sc2c(NCc3cccs3)cc(Cl)nc2c1Br [Cpd 74, 2-[(2S)-2-amino-4-fluorobutyl]-3-bromo-5-chloro-N-[(thiophen-2-yl)methyl]thieno[3,2-b]pyridin-7-amine]	≤ 0.05
CSC[C@H](N)Cc1sc2c(NCc3ccco3)cc(Cl)nc2c1Cl [Cpd 114, 2-[(2R)-2-amino-3-(methylsulfanyl)propyl]-3,5-dichloro-N-[(furan-2-yl)methyl]thieno[3,2-b]pyridin-7-amine]	≤ 0.05
Cc1c(C[C@@H](N)CC(C)C)sc2c(NCc3cccs3)cc(Cl)nc12 [Cpd 61, 2-[(2S)-2-amino-4-methylpentyl]-5-chloro-3-methyl-N-[(thiophen-2-yl)methyl]thieno[3,2-b]pyridin-7-amine]	≤ 0.05
N[C@@H](CF)Cc1sc2c(NCc3cccs3)cc(Cl)nc2c1Br [Cpd 76, 2-[(2R)-2-amino-3-fluoropropyl]-3-bromo-5-chloro-N-[(thiophen-2-yl)methyl]thieno[3,2-b]pyridin-7-amine]	≤ 0.05
N#CC[C@H](N)Cc1sc2c(NCc3cccs3)cc(Cl)nc2c1Cl [Cpd 106, (3S)-3-amino-4-(3,5-dichloro-7-{[(thiophen-2-yl)methyl]amino}thieno[3,2-b]pyridin-2-yl)butanenitrile]	0.05 to 0.5
N[C@H](Cc1sc2c(NCc3cccs3)cc(Cl)nc2c1Br)CC(F)F [Cpd 107, 2-[(2S)-2-amino-4,4-difluorobutyl]-3-bromo-5-chloro-N-[(thiophen-2-yl)methyl]thieno[3,2-b]pyridin-7-amine]	0.05 to 0.5
